{"source": "patent US6482586B1", "about": "(priority 1996, dated 2002)", "key": {"[1]": {"test_system": "Gb3 in XF-498 cells", "assay_type": "cell-based, human", "experimental": "After trypsinization, cells (˜1×10^6) were washed with PBS three times, resuspended in a minimum volume, and extracted with 20 volumes of chloroform/methanol (C/M) 2:1 by vol. The extract was partitioned against water and the lower phase partitioned again against theoretical upper phase. The combined lower phase was then evaporated, saponified with 1 N NaOH in methanol and glycolipids reextracted as above . The dried lower phase was dissolved in CM 98:2 and separated by silica chromatography(32). The column was washed extensively with chloroform and glycolipid eluted in acetone/methanol (9:1 by vol.). Gb3 present was detected by tlc overlay binding with VT binding domain1 (16).\nAliquots of the glycolipid extract of human tumor samples or of tumor cell lines were separated by TLC {chloroform, methanol, water-65:25:4 (v/v/v)}. The plates were dried and blocked with 1% gelatin in water at 37° C. overnight. They were then washed three times with 50 mM TBS for 5 min and incubated with 0.1 μg/ml toxin for 1 hour at R.T. After further washing with TBS, plates were incubated with mouse monoclonal anti-VT binding domain1 antibody(33) (2 μg/ml) for VT binding domain1 followed by peroxidase-conjugated goat anti-mouse antibody . Finally, the plates were washed with TBS, and toxin binding was visualized with 4-chloro-1-naphthol peroxidase substrate. A similar plate was prepared and sprayed with orcinol for comparison of glycolipid content."}, "[2]": {"test_system": "XF-498 cells", "assay": "Morphology and growth of treated XF-498 cells", "assay_type": "cell-based, human", "settings": "for effect on morphology of XF-498 cells: compound alone in culture medium", "procedure": "(§1) XF-498 astrocytoma, ovarian tumour and vero cell lines were cultured in media containing 2 mM sodium butyrate (or propionate or capronate for astrocytoma cells).\n(§2) PPMP(1-phenyl-2-hexadecanoylamino-3-morpholino-1-propanol, Matreya Inc. , Pleasant Gap, Pa.) is a potent inhibitor of glucosylceramide synthesis (36) and thereby prevents the synthesis of most glycolipids. Experiments extablished that 27 μM PPMP was able to inhibit glycosphingolipid synthesis without inducing cell death. XF-498 astrocytoma and vero cells were then incubated at 37° C. with 27 μM PPMP in the presence and absence of 2 mM butyrate for 6-7 days."}, "[3]": {"test_system": "XF-498 cells", "assay": "Cell sensitization to VT by butyrate treatment", "assay_type": "cell-based, human", "settings": "for effect on XF-498 cell sensitivity to VT1 (in words): cells cultured in 2 mM propionate or capronate", "procedure": "Semiconfluent cells in microtiter plates were incubated in triplicates with ten fold VT binding domain dilutions and remaining cells after 72 hr were quantitated by staining with 0.1% crystal violet and measuring the optical density at 570 nm using a microtiter plate reader (31).\nas §1"}, "[4]": {"test_system": "XF-498 cells", "assay_type": "cell-based, human"}, "[5]": {"test_system": "Gb3 of XF-498 cells", "assay": "HPLC analysis of Gb3 fatty acid composition", "assay_type": "cell-based, human", "settings": "butyrate treated XF-498"}, "[6]": {"test_system": "glycosphingolipid synthesis", "assay": "Inhibition of glycolipid synthesis", "assay_type": "cell-based", "procedure": "as §2"}, "[7]": {"settings": "XF-498 cells after treatment, VT1 TLC overlay"}}, "note": "Like-named read-outs stand apart in the source and are kept apart here.", "data": [{"smiles": "CCCC(=O)[O-].[Na+]", "note": "[butyrate, sodium butyrate]", "values": [{"measurement": "change in slower migrating Gb3 band", "setting": "[1]; [7]", "result": "dramatic, selective increase"}, {"measurement": "effect on morphology of XF-498 cells", "setting": "[2]", "result": "profound effect"}, {"measurement": "increase in XF-498 cell sensitivity to VT1", "setting": "[3]; cells cultured in 2 mM sodium butyrate", "result": 5000, "unit": "fold"}, {"measurement": "effect on intracellular routing of VT1 B", "setting": "[4]", "result": "marked change in the intracellular routing"}, {"measurement": "fatty acid content of the slow migrating Gb3 species", "setting": "[5]", "result": "markedly increased C16 and decreased C24 fatty acid content"}]}, {"smiles": "CCCCCCCCCCCCCCCC(=O)NC(CN1CCOCC1)C(O)c1ccccc1", "note": "(stereo not drawn) [PPMP, 1-phenyl-2-hexadecanoylamino-3-morpholino-1-propanol]", "values": [{"measurement": "concentration able to inhibit glycosphingolipid synthesis without inducing cell death", "setting": "[6]", "result": 27, "unit": "µM"}, {"measurement": "effect on butyrate-induced morphological changes", "setting": "[2]; PPMP in presence of butyrate", "result": "prevented the butyrate-induced morphological changes"}, {"measurement": "effect on morphology of XF-498 cells", "setting": "[2]", "result": "no effect"}, {"measurement": "effect on butyrate induced VT1 sensitivity of XF-498 cells", "setting": "[3]; 27 μM PPMP with 2 mM butyrate, not shown", "result": "prevented"}]}, {"smiles": "CCCCCC(=O)O", "note": "[capronate]", "values": [{"measurement": "change in slower migrating Gb3 band", "setting": "[1]", "result": "no effect"}, {"measurement": "effect on morphology of XF-498 cells", "setting": "[2]", "result": "no effect"}, {"measurement": "effect on XF-498 cell sensitivity to VT1 (in words)", "setting": "[3]", "result": "no effect"}]}, {"smiles": "CCC(=O)O", "note": "[propionate]", "values": [{"measurement": "change in slower migrating Gb3 band", "setting": "[1]; [7]", "result": "selectively increased, but to a lesser extent"}, {"measurement": "effect on morphology of XF-498 cells", "setting": "[2]", "result": "similar, but less significant, morphological change"}, {"measurement": "effect on XF-498 cell sensitivity to VT1 (in words)", "setting": "[3]", "result": "increased to a lesser extent"}]}]}
